For assay [1], the system named is tumor-induced bone pain (tactile allodynia).
Experimental: This study was conducted in two parts; the first phase determined the optimal dose level for the second phase.
The test system of assay [2] is sigma receptor. Particulars: Sigma 1 and Sigma 2; cited from earlier work.

Structures can show the parent of a compound that is named as a salt. Where two headings read alike, the source gives them in different places.

This is an account of results in patent US20130324535A1, “USE OF SIGMA LIGANDS IN BONE CANCER PAIN” (LABORATORIOS DEL DR. ESTEVE, S.A., priority 2010, published 2013).

In the case of `CN1CC[C@]23c4c5ccc(O)c4O[C@H]2[C@@H](O)C=C[C@H]3[C@H]1C5` [morphine], the “mitigation of allodynia (von Frey test)” value in assay [1] (Phase 1, morphine 1.25 mg/kg given at day 18) was “sub threshold dose”; in assay [1] (Phase 1, morphine 2.5 mg/kg given at day 18), “able to mitigate allodynia with statistical significance”; in assay [1] (Phase 1, morphine 5 mg/kg given at day 18), “able to mitigate allodynia with statistical significance”. Besides, the “effect on allodynia 24 hours after administration” value in assay [1] (Phase 2, morphine 5 mg/kg (positive control), 24 hours after administration) was “no significant effect”.

Turning to `CC(C)=CCN1CCC2(C)c3cc(O)ccc3CC1C2C` (stereo not shown) [pentazocine], in assay [2], the “affinity of the sigma receptors” value is listed as “very high affinity”.

Consider `Cc1cc(OCCN2CCOCC2)nn1-c1ccc2ccccc2c1` [example 1, 4-{2-[5-Methyl-1-(naphthalen-2-yl)-1H-pyrazol-3-yloxy]ethyl}morpholine hydrochloride], for which the “mitigation of allodynia (von Frey test)” value was “not at 40 mg/kg” in assay [1] (Phase 2, example 1 alone 40 mg/kg, 30 minutes after administration) and “statistically significant mitigation of allodynia” in assay [1] (Phase 2, example 1 alone 80 mg/kg, 30 minutes after administration).
